Source: US5527781A, “4-O-(aminoglycosyl)- or 4,6-di-O-(aminoglycosyl)-2,5-dideoxy-5,5-difluorostreptamine derivatives” (Zaidan Hojin Biseibutsu Kagaku Kenkyu Kai, priority 1990, dated 1996)
Values after ≈ are worked out from the molar mass of the structure shown. “Also recorded” adds a separate entry of the source.

Experiments:
bacteria = settings: literature / earlier filings; cited from earlier work
[1] = tested on: Escherichia coli K-12 ML 1629; assay: microbe, parasite or virus in culture; format: cell-based; settings: K12ML1629; Escherichia coli K-12 ML 1629; resistance mechanism APH(3')-I; Mueller-Hinton agar, 37° C; read-out: MIC
in vivo = settings: mouse, iv, pH 7
Description: Further, in order to estimate acute toxicity of the compound of the general formula (I) according to this invention, some examples of the compounds of this invention were independently dissolved in water to prepare aqueous solutions (as adjusted to pH 7 by addition of hydrochloric acid). […] The tested compounds of this invention are expressed by the same abbreviations as in Table 1. […] The comparative compounds as tested are also expressed by the same abbreviations as in Table 1.

[2] = tested on: Staphylococcus aureus 209P; assay: MIC, standard serial dilution method; format: cell-based; settings: Mueller-Hinton agar, 37° C
[3] = tested on: Escherichia coli JR66/W677; assay: microbe, parasite or virus in culture; format: cell-based; settings: resistance mechanism APH(3')-II, ANT(2"), Mueller-Hinton agar, 37° C
[4] = tested on: Pseudomonas aeruginosa GN 315; assay: MIC, standard serial dilution method; format: cell-based; settings: GN315; Pseudomonas aeruginosa GN 315; resistance mechanism AAC(6'); Mueller-Hinton agar, 37° C; read-out: MIC
[5] = tested on: Staphylococcus aureus Ap01; assay: MIC, standard serial dilution method; format: cell-based; settings: resistance mechanism ANT(4'), Mueller-Hinton agar, 37° C
Escherichia coli JR225 = assay: microbe, parasite or virus in culture; format: cell-based; settings: resistance mechanism AAC(3), Mueller-Hinton agar, 37° C
[6] = tested on: Pseudomonas aeruginosa A3; assay: MIC, standard serial dilution method; format: cell-based; settings: Mueller-Hinton agar, 37° C
Providencia sp. Pv 16 = assay: MIC, standard serial dilution method; format: cell-based; settings: SP.PV16, resistance mechanism AAC(2'), Mueller-Hinton agar, 37° C
Escherichia coli K-12 R5 = assay: microbe, parasite or virus in culture; format: cell-based; settings: K12R5; Escherichia coli K-12 R5; resistance mechanism AAC(6'); Mueller-Hinton agar, 37° C
[7] = tested on: Klebsiella pneumoniae 22#3038; assay: MIC, standard serial dilution method; format: cell-based; settings: resistance mechanism APH(3')-II, ANT(2"), Mueller-Hinton agar, 37° C
[8] = tested on: Corynebacterium bovis 1810; assay: MIC, standard serial dilution method; format: cell-based; settings: Mueller-Hinton agar, 37° C
Mycobacterium 607 = assay: MIC, standard serial dilution method; format: cell-based; settings: Mueller-Hinton agar, 37° C
Bacillus subtilis PCI219 = assay: MIC, standard serial dilution method; format: cell-based; settings: Mueller-Hinton agar, 37° C
Serratia marcescens = assay: MIC, standard serial dilution method; format: cell-based; settings: Mueller-Hinton agar, 37° C
[9] = tested on: Escherichia coli K-12 LA 290 R55; assay: microbe, parasite or virus in culture; format: cell-based; settings: K12LA290R55; Escherichia coli K-12 LA 290 R55; resistance mechanism ANT(2"); Mueller-Hinton agar, 37° C
Proteus rettgeri GN 311 = assay: MIC, standard serial dilution method; format: cell-based; settings: Providencia rettgeri, GN311; Proteus rettgeri GN 311; Mueller-Hinton agar, 37° C; read-out: MIC
Escherichia coli K-12 = assay: MIC, standard serial dilution method; format: cell-based; settings: K12; Escherichia coli K-12; Mueller-Hinton agar, 37° C; read-out: MIC

## NC[C@H]1O[C@H](O[C@H]2[C@H](O)[C@@H](O[C@H]3O[C@H](CO)[C@@H](O)[C@H](N)[C@H]3O)[C@H](N)C[C@@H]2N)[C@H](F)C[C@@H]1O [2',3'-dideoxy-2'-fluorokanamycin A]
bacteria
  antibacterial activity compared with parent (e.g. kanamycin A): improved antibacterial activities, as compared to those of their corresponding parent compounds

## NC[C@@H]1C[C@H](F)[C@@H](N)[C@@H](O[C@H]2[C@H](O)[C@@H](O[C@H]3O[C@H](CO)[C@@H](O)[C@H](N)[C@H]3O)[C@H](N)C[C@@H]2N)O1 [3',4'-dideoxy-3'-fluorokanamycin B]
bacteria
  antibacterial activity compared with parent (e.g. kanamycin A): improved antibacterial activities, as compared to those of their corresponding parent compounds

## NC[C@H]1O[C@H](O[C@H]2[C@H](O)[C@@H](O[C@H]3O[C@H](CO)[C@@H](O)[C@H](N)[C@H]3O)[C@H](N)C[C@@H]2N)[C@H](O)[C@@H](F)[C@@H]1O [3'-deoxy-3'-fluorokanamycin A]
bacteria
  antibacterial activity compared with parent (e.g. kanamycin A): improved antibacterial activities, as compared to those of their corresponding parent compounds

## NC[C@H]1O[C@H](O[C@H]2[C@H](O)[C@@H](O[C@H]3O[C@H](CO)[C@@H](O)[C@H](N)[C@H]3O)[C@H](N)C[C@@H]2N)[C@H](N)[C@@H](F)[C@@H]1O [3'-deoxy-3'-fluorokanamycin B]
bacteria
  antibacterial activity compared with parent (e.g. kanamycin A): improved antibacterial activities, as compared to those of their corresponding parent compounds; also recorded: remarkable antibacterial activities against various gram-positive and gram-negative bacteria, including the resistant bacteria

## NC[C@H]1O[C@H](O[C@H]2[C@H](O)[C@@H](O[C@H]3O[C@H](CO)[C@H](F)[C@H](N)[C@H]3O)[C@H](N)C[C@@H]2N)[C@H](O)[C@@H](O)[C@@H]1O [4"-deoxy-4"-fluoro-4"-epi-kanamycin A]
bacteria
  antibacterial activity compared with parent (e.g. kanamycin A): lower than that of kanamycin A

## NC[C@H]1O[C@H](O[C@H]2[C@@H](F)[C@@H](O[C@H]3O[C@H](CF)[C@@H](O)[C@H](N)[C@H]3O)[C@H](N)C[C@@H]2N)[C@H](O)[C@@H](O)[C@@H]1O [5,6"-dideoxy-5,6"-difluoro-5-epi-kanamycin A]
bacteria
  antibacterial activity compared with parent (e.g. kanamycin A): antibacterial activities substantially as high as that of kanamycin A

## NC[C@H]1O[C@H](O[C@H]2[C@@H](F)[C@@H](O[C@H]3O[C@H](CO)[C@H](O)[C@H](N)[C@H]3O)[C@H](N)C[C@@H]2N)[C@H](O)[C@@H](O)[C@@H]1O [5-deoxy-5-fluoro-5,4"-di-epi-kanamycin A]
bacteria
  antibacterial activity compared with parent (e.g. kanamycin A): antibacterial activities substantially as high as that of kanamycin A

## NC[C@H]1O[C@H](O[C@H]2[C@H](O)[C@@H](O[C@H]3O[C@H](CF)[C@@H](O)[C@H](N)[C@H]3O)[C@H](N)C[C@@H]2N)[C@H](O)[C@@H](O)[C@@H]1O [6"-deoxy-6"-fluorokanamycin A]
bacteria
  antibacterial activity compared with parent (e.g. kanamycin A): antibacterial activities substantially as high as that of kanamycin A

## CN[C@@H]1[C@@H](O)[C@@H](O[C@@H]2[C@@H](O)[C@H](O[C@H]3O[C@H]([C@@H](C)N)CC[C@H]3N)[C@@H](N)C[C@H]2N)OC[C@]1(C)O [Genta-C2, gentamicin C2, reference compound]
[1]
  MIC: 0.39 µg/mL (≈ 0.841 µM)
In vivo
  LD50: ~90 mg/kg
[2]
  MIC: < 0.2 µg/mL
[3]
  MIC: 25 µg/mL (≈ 53.9 µM)
[4]
  MIC: 3.12 µg/mL (≈ 6.73 µM)
[5]
  MIC: 0.78 µg/mL (≈ 1.68 µM)
Escherichia coli JR225
  MIC: 6.25 µg/mL (≈ 13.5 µM)
[6]
  MIC: 0.39 µg/mL (≈ 0.841 µM)
Providencia sp. Pv 16
  MIC: 6.25 µg/mL (≈ 13.5 µM)
Escherichia coli K-12 R5
  MIC: 1.56 µg/mL (≈ 3.37 µM)
[7]
  MIC: 12.5 µg/mL (≈ 27 µM)
[8]
  MIC: 0.39 µg/mL (≈ 0.841 µM)
Mycobacterium 607
  MIC: 1.56 µg/mL (≈ 3.37 µM)
Bacillus subtilis PCI219
  MIC: < 0.2 µg/mL
Serratia marcescens
  MIC: 0.78 µg/mL (≈ 1.68 µM)
[9]
  MIC: 12.5 µg/mL (≈ 27 µM)
Proteus rettgeri GN 311
  MIC: 0.2 µg/mL (≈ 0.431 µM)
Escherichia coli K-12
  MIC: < 0.2 µg/mL

## CCN[C@@H]1C[C@H](N)[C@@H](O[C@H]2OC(CN)=CC[C@H]2N)[C@H](O)[C@H]1O[C@H]1OC[C@](C)(O)[C@H](NC)[C@H]1O [Netilmicin, netilmicin, reference compound]
[1]
  MIC: 0.39 µg/mL (≈ 0.82 µM)
In vivo
  LD50: 30 mg/kg
[2]
  MIC: < 0.2 µg/mL
[3]
  MIC: 0.39 µg/mL (≈ 0.82 µM)
[4]
  MIC: > 100 µg/mL
[5]
  MIC: 0.78 µg/mL (≈ 1.64 µM)
Escherichia coli JR225
  MIC: 12.5 µg/mL (≈ 26.3 µM)
[6]
  MIC: 0.39 µg/mL (≈ 0.82 µM)
Providencia sp. Pv 16
  MIC: 6.25 µg/mL (≈ 13.1 µM)
Escherichia coli K-12 R5
  MIC: 50 µg/mL (≈ 105 µM)
[7]
  MIC: 0.39 µg/mL (≈ 0.82 µM)
[8]
  MIC: 1.56 µg/mL (≈ 3.28 µM)
Mycobacterium 607
  MIC: 1.56 µg/mL (≈ 3.28 µM)
Bacillus subtilis PCI219
  MIC: < 0.2 µg/mL
Serratia marcescens
  MIC: 6.25 µg/mL (≈ 13.1 µM)
[9]
  MIC: 0.39 µg/mL (≈ 0.82 µM)
Proteus rettgeri GN 311
  MIC: 0.39 µg/mL (≈ 0.82 µM)
Escherichia coli K-12
  MIC: < 0.2 µg/mL
